{"source": "patent US11077151B2", "about": "“Ascaroside treatment of autoimmune and inflammatory diseases” (California Institute of Technology, priority 2016, dated 2021)", "key": {"[1]": {"test_system": "IL-6 secretion, bone marrow-derived mouse dendritic cells", "assay": "IL-6 secretion by TNF-α stimulated bone marrow dendritic cells (ELISA)", "type": "cell-based", "conditions": "different concentrations of ascr #7", "procedure": "(§1) Bone marrow was extracted from femurs of C57BL/6 mice (6-12 weeks of age). These mice were euthanized by CO2 inhalation and their femurs were removed. After removing the remaining flesh from the bone, they were cut at the metaphysis. Bone marrow was flushed out using a syringe filled with RPMI. The extracted marrow was further broken down by resuspension with syringe. The mixture was centrifuged and the pellet was re-suspended in RPMI. […] 20 ng of GM-CSF was added to each well. At day 3, and every 3 days thereafter, the media was replaced. Cells were used for experiments between day 7-9.\n(§2) Bone marrow dendritic cells were collected between day 7-9 of culture. Cells were washed twice and counted. Ascr #7 in water or RPMI were placed in corresponding wells, and are allowed to dry. 10^6 cells were then plated in each well in a 24 well culture plate. Cells were left to incubate with ascr #7 for 5 minutes. Following the brief incubation, different TNFα was added to the wells. These bone marrow dendritic cells were then cultured at 37° C. for 18-72 hours. Cells were collected via the pellet generated by centrifuge. The supernatant was also preserved. EBioscience ELISA kits was used to determine the concentration of different cytokines present in each well."}, "[2]": {"test_system": "IL-1β secretion, bone marrow-derived mouse dendritic cells", "assay": "IL-1β secretion by TNF-α stimulated bone marrow dendritic cells (ELISA)", "type": "cell-based", "conditions": "different concentrations of ascr #7", "procedure": "as §1, §2"}, "[3]": {"test_system": "ovalbumin model of murine asthma (C57BL/6 mice)", "assay": "Ovalbumin model of murine asthma", "type": "in vivo, mouse", "procedure": "Adult C57BL/6 mice were sensitized by administering 2 ug OVA (Sigma-Aldrich) and 1 mg alum (Thermo) with 50 ng ascr #7 or saline, via intraperitoneal injection, on Day 0 and 14. On day 24, the mice were challenged with intranasal administration of saline containing 100 μg OVA, under isoflurane anesthesia. Histologic sections were stained with H&E or PAS to score for eosinophilia, goblet cell metaplasia, and airway hyper-reactivity. Mice were also placed in a computer controlled small animal ventilator (SCIREQ) to score for airway hyper-reactivity following methacholine challenge. […] Animals with asthma have higher resistance of flow, which would be represented as higher “RL” values in FIG. 3B. […] Lungs were collected, postmortem, and then sectioned and stained to show the presence of eosinophils and mucus. […] In FIG. 3C, the asthmatic mouse lung, here labeled “Control” has a large number of mucus and eosinophils that surround the bronchioles and occupy the alveolar space; wherein the thick barriers would prohibit oxygen from easily diffusing."}, "[4]": {"test_system": "NOD/ShiLtJ mouse model of Type 1 Diabetes", "assay": "NOD/ShiLtJ mouse model of Type 1 Diabetes", "type": "in vivo", "conditions": "100 ng ascr #7 i.p. three times a week", "procedure": "The NOD/ShiLtJ (Jackson Laboratories) mouse model of Type 1 Diabetes was used These mice typically develop hyperglycemia around 17-18 weeks of life. Either saline or 100 ng ascr #7 was administered three times a week via intraperitoneal injection. Blood glucose levels were determined in the same mouse over time, via the collected of tail vein blood (as shown in FIG. 4A) at multiple time points. […] 8 mice were injected with saline and 8 mice were injected with ascr #7, as described above."}, "[5]": {"test_system": "T cell transfer model of colitis, Rag -/- mice", "assay": "T cell transfer model of colitis (IBD)", "type": "in vivo, mouse", "conditions": "300 ng ascr #7 i.p. every 3 days, day 14 to 28", "procedure": "A T cell transfer model of colitis where 10^6CD4+ T cells were transferred to adult Rag −/− mice was used, and either saline or 300 ng ascr #7 were administered via intraperitoneal injection every 3 days between day 14 and day 28. On day 28, the mice were euthanized and colon analysis was performed. n=3 mice per group. […] The normal mouse colon is long, skinny, and has discrete fecal pellets. The diseased mouse colon, with IBD, has a shortened, dilated colon, with diarrhea instead of discrete fecal pellets."}, "[6]": {"target": "T1, IL-6 receptor (Homo sapiens, UniProt P08887)", "T1 construct": "host or cells: human patients (endogenous receptor)", "T1 sequence (P08887 20-468)": "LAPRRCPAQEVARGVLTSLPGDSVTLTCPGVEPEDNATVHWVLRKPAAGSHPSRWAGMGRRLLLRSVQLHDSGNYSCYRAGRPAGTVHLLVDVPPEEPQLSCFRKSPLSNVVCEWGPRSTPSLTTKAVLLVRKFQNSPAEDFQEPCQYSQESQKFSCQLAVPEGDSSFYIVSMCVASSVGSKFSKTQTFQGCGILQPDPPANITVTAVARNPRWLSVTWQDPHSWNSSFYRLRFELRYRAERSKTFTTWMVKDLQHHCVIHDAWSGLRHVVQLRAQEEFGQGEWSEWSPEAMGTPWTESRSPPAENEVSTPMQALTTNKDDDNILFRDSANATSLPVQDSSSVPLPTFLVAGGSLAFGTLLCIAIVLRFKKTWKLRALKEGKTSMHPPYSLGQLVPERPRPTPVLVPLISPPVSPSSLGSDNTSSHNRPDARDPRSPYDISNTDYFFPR", "conditions": "cited from earlier work"}, "[7]": {"conditions": "ovalbumin model, 50 ng ascr #7 i.p."}}, "data": [{"molecule": "C[C@H](CC/C=C/C(=O)O)O[C@@H]1O[C@@H](C)[C@H](O)C[C@H]1O", "note": "[ascr #7]", "values": [{"measurement": "IL-6 level", "setting": "[1]; dendritic cells not stimulated with TNF-α, FIG. 1 left", "result": "very low levels of IL-6"}, {"measurement": "secreted IL-6 level", "setting": "[1]; dendritic cells stimulated with TNF-α, FIG. 1 right", "result": "reduces these levels significantly"}, {"measurement": "IL-1β level", "setting": "[2]; dendritic cells not stimulated with TNF-α, FIG. 2 left", "result": "very low levels of IL-1β"}, {"measurement": "secreted IL-1β level", "setting": "[2]; dendritic cells stimulated with TNF-α, FIG. 2 right", "result": "reduces these levels significantly"}, {"measurement": "lung histology (boundaries between bronchioles and alveolar space; eosinophils and mucus)", "setting": "[3]; 50 ng ascr #7 i.p. Day 0 and 14, stained lung sections, FIG. 3C", "result": "thin boundaries between the bronchioles and the alveolar space, comparable to the normal mice"}, {"measurement": "resistance of air flow (RL)", "setting": "[3]; 50 ng ascr #7 i.p. Day 0 and 14 with OVA/alum, methacholine challenge, FIG. 3B", "result": "low resistance of air flow, with comparable levels to normal mice"}, {"measurement": "development of airway hyper-reactivity", "setting": "[3]; [7]", "result": "reduces"}, {"measurement": "development of eosinophilia", "setting": "[3]; [7]", "result": "reduces"}, {"measurement": "development of goblet cell metaplasia", "setting": "[3]; [7]", "result": "reduces"}, {"measurement": "blood glucose levels, individual mice", "setting": "[4]; throughout 18 weeks, FIG. 4B", "result": "significantly reduced blood glucose levels"}, {"measurement": "blood glucose levels, group average vs untreated group", "setting": "[4]; week 18, FIG. 4C", "result": "significantly lower blood glucose levels"}, {"measurement": "conversion to hyperglycemia", "setting": "[4]; NOD mice", "result": "delays conversion to hyperglycemia"}, {"measurement": "development of abnormal lumen dilation", "setting": "[5]", "result": "markedly reduces"}, {"measurement": "development of colon shortening", "setting": "[5]", "result": "markedly reduces"}, {"measurement": "development of diarrhea", "setting": "[5]", "result": "markedly reduces"}, {"measurement": "colon appearance on day 28", "setting": "[5]; FIG. 5", "result": "normal appearing colon, which is long, skinny, and contains discrete fecal pellets"}]}, {"molecule": "Tocilizumab: a humanized anti-IL-6 receptor antibody", "values": [{"measurement": "clinical activity of atopic dermatitis", "setting": "[6]; 3 patients with severe atopic dermatitis, Navarini et al. 2011", "result": "decreased clinical activity"}, {"measurement": "relapse rates, neuropathic pain and general fatigue, neuromyelitis optica", "setting": "[6]; after one year of treatment, Araki et al. 2014", "result": "decreased"}, {"measurement": "manifestations of eosinophilic fasciitis", "setting": "[6]; at 6 months, Espinoza et al. 2015", "result": "remission of both articular and cutaneous manifestations"}, {"measurement": "disease remission, severe multisystemic microscopic polyangiitis", "setting": "[6]; one patient, Berti et al. 2015", "result": "complete and sustained disease remission"}, {"measurement": "treatment of uveitis", "setting": "[6]; patients, Mesquida et al. 2014", "result": "effective"}, {"measurement": "inflammatory response and quality of life measures, Cogan's syndrome", "setting": "[6]; person, relapsed after prednisone, Shibuya et al. 2013", "result": "successfully improved"}]}]}
